From publication PMC12332266 (Frontiers in Pharmacology, 2025)
Entries after “also recorded” stand apart in the source; their conditions may differ. Where two headings read alike, the source gives them in different places. Values belong to the compound of their own block, whether it stands above or below them.

Legend:
[1] = ref extensive literature search, cited from earlier work
[2] = system: hiPSC-CM (iCell Cardiomyocytes^2); assay: miRNA in hiPSC-CM culture media by RT-qPCR at 24, 48 and 72 h post-treatment; conditions: doxorubicin 0.1 μM, vinblastine 0.3 μM; for hsa-miR-133b in culture media, in words: 24, 48, 72 h, arsenic trioxide 0.48 μM, milrinone 3 μM, vincristine 0.3 μM, erlotinib 7.7 μM;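 for all read-outs here: medium RNA quantified by RT-qPCR, CT-values normalized to housekeeping miRNAs, compared against DMSO control, doses chosen from the MEC for CI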
Procedure: To extract total RNA from the culture media, hiPSC-CM were plated on 24-well plates by seeding 275,000 cells per mL per well. hiPSC-CM were maintained for 7 days in 200 µL of iCell^2 Maintenance Medium (iCell^2 MM; FCDI) for the 48-well ePlate and in 1 mL for 24-well plate, before drug treatment. Culture media change was performed every 2 days.
Stock solutions were diluted 1:1000 in iCell^2 MM before treatment and equilibrated at 37°C. As vehicle control, DMSO 0.1% was added to the media. Drug treatments on biological replicates (n = 3) were refreshed daily, and culture media was collected for further miRNA analysis. After 72 h, cell pellets were collected and stored at −80°C until total RNA extraction.
hiPSC-CM culture media was collected daily from 24-well plates, and centrifuged (+4°C, 11,000 rpm) for 5 min to remove cellular debris/cells. Total RNA was extracted from 300 µL of supernatant by Trizol/Chloroform phase separation and purification of total RNA by miRNeasy 96 Kit (Qiagen, Hilden, Germany). The spike-in control cel-miR-39 (Qiagen, Hilden, Germany) was used to check the quality of samples and PCR efficiency. DNase treatment (RNase-Free DNase Set (Qiagen, Hilden, Germany)) was applied according to the manufacturer’s instructions. After the RNA extraction, the same RT-qPCR protocol as for hiPSC-CM lysate was followed. Multiple unpaired t-tests were performed to compare delta CT-values (CT-values normalized to the housekeeping miRNAs) of the treatment groups to the DMSO control.
Analysis of miRNA in the culture media of hiPSC-CM treated with structural cardiotoxicants was performed at 24-, 48- and 72-hour post-treatment. […] The treatment concentrations were selected based on the MEC for CI to ensure that the preliminary evidence of cardiotoxicity in hiPSC-CMs could potentially lead to miRNA release in the culture media.

[3] = system: hiPSC-CM (iCell Cardiomyocytes^2); assay: RTCA CardioECR assessment (impedance and electrophysiology parameters)
Method in brief: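 iCell^2 cardiomyocytes on fibronectin-coated ePlates monitored continuously by impedance for cell index, beating rate and amplitude. Field potential duration and spike amplitude were recorded from day 4–6 after monolayer formation. Data were double-normalized to DMSO control and baseline, with variability given as SD.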

[4] = system: hiPSC-CM (iCell Cardiomyocytes^2); assay: Intracellular miRNA expression by RT-qPCR in hiPSC-CM pellets after 72-hour treatment; conditions: for fold induction at 0.01 µM / fold induction at 0.03 µM / fold induction at 0.1 µM / fold induction at 0.3 µM / fold induction at 1 µM / fold induction at 3 µM: Homo sapiens
Method in brief: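 After 72-hour treatment and RTCA CardioECR assessment, total RNA from hiPSC-CM pellets was reverse transcribed, pre-amplified and quantified by TaqMan RT-qPCR against a 17-miRNA panel. Triplicates were pooled, so no statistical analysis was performed.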

[5] = hiPSC-CM, 72-hour treatment, lowest concentration causing at least 20% change from baseline
[6] = 72 h, read-out: hsa-miR-7-5p fold change
[7] = 72 h, read-out: hsa-miR-126-3p fold change
[8] = 72 h, read-out: hsa-miR-146b-5p fold change
[9] = 72 h, read-out: hsa-miR-182-5p fold change
[10] = 72 h, read-out: hsa-miR-185-3p fold change
[11] = 72 h, read-out: hsa-miR-187-3p fold change
[12] = 72 h, read-out: hsa-miR-208b-3p fold change
[13] = 72 h, read-out: hsa-miR-[…] change
[14] = 72 h, read-out: hsa-miR-29a-5p fold change
[15] = 72 h, read-out: hsa-miR-96-5p fold change
[16] = 72 h, read-out: hsa-miR-133b fold change
[17] = 72 h, read-out: hsa-miR-365a-5p fold change

RTCA, MEC (CI) ([3]; hiPSC-CM, change ≥20%, Table 2): 0.1 µM (CI)
Contractility Amplitude MEC ([3]; human, 72 h): 0.1 µM
Spike Amplitude (SA) MEC ([3]; human, 72 h): 0.01 µM
miRNAs hiPSC-CM pellet, MEC overall [4]: 0.03 µM
miRNAs upregulated at the MEC overall (hiPSC-CM pellet) [4]: miR-34a-5p, miR-146b-5p, miR-187-3p
Compound: COc1cccc2c1C(=O)c1c(O)c3c(c(O)c1C2=O)C[C@@](O)(C(=O)CO)C[C@@H]3O[C@H]1C[C@H](N)[C@H](O)[C@H](C)O1 [Doxorubicin]
Cmax total ([1]; Supplementary Table 1): 1600 nM
Cmax total ([1]; Table 1): 1600 nM
hsa-miR-133b in culture media, in words [2]: upregulation was detected only after 72 h of treatment; also recorded: significant upregulation was observed only after 72-hour treatment
hsa-miR-187-3p in culture media, in words [2]: detected in the culture media only following 72-hour exposure
intracellular miRNA upregulation in hiPSC-CM, in words [4]: lowest upregulation of miRNAs was detected at the highest concentration tested

Field Potential Duration MEC ([3]; hiPSC-CM, 72-hour treatment, at least 10% change): 0.1 µM
Spike Amplitude (SA) MEC ([3]; human, 72 h): 0.01 µM
miRNAs upregulated at the MEC overall (hiPSC-CM pellet) ([4]; fold change ≥2, 72 h): miR-126-3p, miR-187-3p
miRNAs hiPSC-CM pellet, MEC overall ([4]; lowest concentration tested which produced miRNA upregulation (fold change ≥2), 72 h): 0.01 µM
Compound: CCCCCNC(=N)N/N=C/c1c[nH]c2ccc(OC)cc12 [Tegaserod]
Cmax total ([1]; Supplementary Table 1): 80 nM
Cmax total ([1]; Table 1): 80 nM
Beating rate (BR) MEC [3, 5]: ND (ND – not detected, magnitude of change was lower than 20%)
Cell index (CI) MEC [3, 5]: ND (ND – not detected, magnitude of change was lower than 20%)
RTCA, MEC (BR) ([3]; hiPSC-CM, change ≥20%, Table 2): ND (ND – not detected, magnitude of change was lower than 20% for CI/BR)
RTCA, MEC (CI) ([3]; hiPSC-CM, change ≥20%, Table 2): ND (ND – not detected, magnitude of change was lower than 20% for CI/BR)
fold induction at 0.01 µM [4, 6]: 0.8
fold induction at 0.03 µM [4, 6]: 1.4
fold induction at 0.1 µM [4, 6]: 1.3
fold induction at 0.3 µM [4, 6]: 2
fold induction at 0.01 µM [4, 7]: 2
fold induction at 0.03 µM [4, 7]: 4.9
fold induction at 0.1 µM [4, 7]: 0.9
fold induction at 0.3 µM [4, 7]: 3.2
fold induction at 0.01 µM [4, 8]: 0.5
fold induction at 0.03 µM [4, 8]: 0.7
fold induction at 0.1 µM [4, 8]: 1.2
fold induction at 0.3 µM [4, 8]: 0.9
fold induction at 0.01 µM [4, 9]: 1.8
fold induction at 0.03 µM [4, 9]: 3.9
fold induction at 0.1 µM [4, 9]: 1.9
fold induction at 0.3 µM [4, 9]: 15.7
fold induction at 0.01 µM [4, 10]: 0.7
fold induction at 0.03 µM [4, 10]: 1.3
fold induction at 0.1 µM [4, 10]: 0.9
fold induction at 0.3 µM [4, 10]: 1
fold induction at 0.01 µM [4, 11]: 2.5
fold induction at 0.03 µM [4, 11]: 2
fold induction at 0.1 µM [4, 11]: 2
fold induction at 0.3 µM [4, 11]: 3.7
fold induction at 0.01 µM [4, 12]: 1.8
fold induction at 0.03 µM [4, 12]: 1.2
fold induction at 0.1 µM [4, 12]: 1.7
fold induction at 0.3 µM [4, 12]: 1.4
fold induction at 0.01 µM [4, 13]: 0.8
fold induction at 0.03 µM [4, 13]: 0.8
fold induction at 0.1 µM [4, 13]: 0.9
fold induction at 0.3 µM [4, 13]: 0.7

RTCA, MEC (CI) ([3]; hiPSC-CM, change ≥20%, Table 2): 0.3 µM
Beating Rate MEC ([3]; human, 72 h): 0.003 µM
Beating rate (BR) MEC ([3]; human, 72 h): 0.003 µM
Contractility Amplitude MEC ([3]; human, 72 h): 0.0003 µM
RTCA, MEC (BR) ([3]; human, 72 h): 0.003 µM
Spike Amplitude (SA) MEC ([3]; human, 72 h): 0.0003 µM
miRNAs hiPSC-CM pellet, MEC overall [4]: 0.0003 µM
miRNAs upregulated at the MEC overall (hiPSC-CM pellet) [4]: miR-126-3p, miR-133b, miR-185-3p
Compound: CC[C@]1(O)C[C@@H]2CN(CCc3c([nH]c4ccccc34)[C@@](C(=O)OC)(c3cc4c(cc3OC)N(C)[C@H]3[C@@](O)(C(=O)OC)[C@H](OC(C)=O)[C@]5(CC)C=CCN6CC[C@]43[C@@H]65)C2)C1 [Vinblastine]
Cmax total ([1]; Supplementary Table 1): 35 nM
Cmax total ([1]; Table 1): 35 nM
hsa-miR-133b in culture media, in words [2]: upregulation was detected only after 72 h of treatment; also recorded: significant upregulation was observed only after 72-hour treatment
hsa-miR-187-3p in culture media, in words [2]: detected in the culture media only following 72-hour exposure

Cell index (CI) MEC [3, 5]: 0.1 µM
RTCA, MEC (CI) ([3]; hiPSC-CM, change ≥20%, Table 2): 0.1 µM
Beating Rate MEC ([3]; human, 72 h): 1 µM
Beating rate (BR) MEC ([3]; human, 72 h): 1 µM
Cell Index MEC ([3]; human, 72 h): 0.1 µM
Contractility Amplitude MEC ([3]; human, 72 h): 0.1 µM
Field Potential Duration MEC ([3]; human, 72 h): 1 µM
RTCA, MEC (BR) ([3]; human, 72 h): 1 µM
Spike Amplitude (SA) MEC ([3]; human, 72 h): 0.1 µM
intracellular miRNA upregulation in hiPSC-CM, in words [4]: smallest fold change
miRNAs hiPSC-CM pellet, MEC overall [4]: 0.1 µM
miRNAs upregulated at the MEC overall (hiPSC-CM pellet) [4]: miR-34a-5p, miR-146b-5p
Compound: CCC1=C[C@@H]2CN(C1)Cc1c([nH]c3ccccc13)[C@@](C(=O)OC)(c1cc3c(cc1OC)N(C)[C@H]1[C@@](O)(C(=O)OC)[C@H](OC(C)=O)[C@]4(CC)C=CCN5CC[C@]31[C@@H]54)C2 [Vinorelbine]
Cmax total ([1]; Supplementary Table 1): 811 nM
Cmax total ([1]; Table 1): 810 nM
fold induction at 0.1 µM [4, 6]: 1
fold induction at 0.3 µM [4, 6]: 1.4
fold induction at 1 µM [4, 6]: 0.9
fold induction at 3 µM [4, 6]: 1.8
fold induction at 0.1 µM [4, 14]: 0.4
fold induction at 0.3 µM [4, 14]: 1.1
fold induction at 1 µM [4, 14]: 0.2
fold induction at 3 µM [4, 14]: 0.9
fold induction at 0.1 µM [4, 15]: 1.3
fold induction at 0.3 µM [4, 15]: 4.8
fold induction at 1 µM [4, 15]: 0.9
fold induction at 0.1 µM [4, 7]: 1.4
fold induction at 0.3 µM [4, 7]: 2
fold induction at 1 µM [4, 7]: 0.6
fold induction at 3 µM [4, 7]: 0.2
fold induction at 0.1 µM [4, 16]: 0.1
fold induction at 0.3 µM [4, 16]: 0.2
fold induction at 1 µM [4, 16]: 0.3
fold induction at 3 µM [4, 16]: 0.1
fold induction at 0.1 µM [4, 8]: 3.1
fold induction at 0.3 µM [4, 8]: 1.1
fold induction at 1 µM [4, 8]: 0.1
fold induction at 3 µM [4, 8]: 0.2
fold induction at 0.1 µM [4, 9]: 0.7
fold induction at 1 µM [4, 9]: 0.1
fold induction at 0.1 µM [4, 10]: 1.2
fold induction at 0.3 µM [4, 10]: 1.9
fold induction at 1 µM [4, 10]: 0.9
fold induction at 3 µM [4, 10]: 0.6
fold induction at 0.1 µM [4, 11]: 1.1
fold induction at 0.3 µM [4, 11]: 0.9
fold induction at 1 µM [4, 11]: 0.8
fold induction at 3 µM [4, 11]: 0.3
fold induction at 0.1 µM [4, 12]: 0.8
fold induction at 0.3 µM [4, 12]: 1.7
fold induction at 1 µM [4, 12]: 0.7
fold induction at 3 µM [4, 12]: 0.8
fold induction at 0.3 µM [4, 17]: 2.4
fold induction at 1 µM [4, 17]: 0.1
